We go through 23 compounds from paper PMC5677254, “Design, Synthesis, and Characterization of N-Oxide-Containing Heterocycles with in Vivo Sterilizing Antitubercular Activity” (Journal of Medicinal Chemistry, 2017).

For data set [1], the system named is MRC-5 human lung fibroblast cell line. Also on record: method as in PMID 27508879. The following applies: cited from earlier work.
The test system of data set [2] is Mtb H37Rv (ATCC 27294). Further details: method as in PMID 27508879. The following applies: cited from earlier work.
The subject of data set [3] is dormant M. tuberculosis H37Rv. Kind of data set: microbe, parasite or virus in culture. The format is cell-based. The settings on record: Mycobacterium tuberculosis, dormant (nonreplicating) M. tuberculosis H37Rv.
Data set [4] deals with Mtb H37Rv (ATCC 27294). Kind of data set: Resazurin microtiter assay (REMA), MIC90 against bacteria in active state. The format is cell-based. The settings on record: Mycobacterium tuberculosis, actively replicating M. tuberculosis H37Rv, REMA; for MIC90: read-out: MIC90. On the technique in general: Resazurin is reduced to fluorescent resorufin, in cell work by metabolically active cells.

Data set [5] can be described thus: Cytotoxicity against MRC-5 cell line. The following applies: human, cytotoxicity IC50, MRC-5 cell line.
Data set [6] concerns Candida albicans (ATCC 10231). Kind of data set: Spectrum of activity, OD570 after 48 h. The format is cell-based. The settings on record: ATCC10231, read-out: MIC90 (antimicrobial activity). As to the method: (§1) Determination of Minimal Inhibitory Concentration (MIC90) Against Bacteria in Dormant […]
(§2) The selective compounds (SI ≥ 10) were tested against the mycobacterium in a dormant state. The cultures were thawed, diluted in Middlebrook 7H12 broth, and sonicated for 5 s. The cultures were diluted to obtain the concentration between […] and 2 × 10^6 CFU/mL. TwoHfold serial dilutions of the compounds were prepared in a volume of […] in white 96Hwell microtiter plates, followed by the addition of […] of the cell suspension. The microplate cultures were placed under anaerobic conditions (oxygen concentration less than 0.16%) by using an Anoxomat model WS8080 (MART Microbiology) followed by two cycles of evacuation and filling with a mixture of 10% hydrogen (H2), 5% carbon dioxide (CO2), and the balance with nitrogen (N2). An anaerobic indicator strip was placed inside the chamber to visually confirm the removal of oxygen. The plates were incubated at 37°C for 10 days and then transferred to an ambient gaseous condition (5% CO2H enriched air) incubator for a 28 h “recovery.” On day 11 (after the 28Hh aerobic recovery), we determined the luminescence and calculated the MIC90.4
(§3) To establish the spectrum activity, we determined the MIC90 against E. coli (ATCC 25922) and S. aureus (ATCC 29213) by measuring the optical density at 570 nm after 16 h of incubation in Mueller–Hinton II broth (Becton Dickinson, Sparks; Maryland, United States) and against C. albicans (ATCC 10231) at OD570 after 48 h in Cellgro RPMI 1640 medium (Mediatech Inc., Manassas, Virginia, United States). The MIC was defined as the lowest concentration resulting in 90% reduction in absorption relative to that of untreated control cultures.
(§4) Determination of Minimal Inhibitory Concentration Against Isogenic Monoresistant Strains

Data set [7] concerns Escherichia coli (ATCC 25922). The data set is described as follows: Spectrum of activity, OD570 after 16 h. The format is cell-based. The settings on record: ATCC25922, read-out: MIC90 (antimicrobial activity). As to the method: as §1, §2, §3, §4
Data set [8] relates to Staphylococcus aureus (ATCC 29213). Kind of data set: Spectrum of activity, OD570 after 16 h. The data set is classed as cell-based. The settings on record: ATCC29213, read-out: MIC90 (antimicrobial activity). On the procedure:
as §1, §2, §3, §4

Molecules are shown by their SMILES. In brackets after ≈: the same amount, converted by molar mass. Several values for one entry are separate records, joined by “and”; a condition that tells them apart may be missing. Equal values may be shown once. Read-outs that look alike come from different tables or passages of the source.

As to `O=C(N/N=C/c1ccc(Oc2no[n+]([O-])c2S(=O)(=O)c2ccccc2)cc1)c1ccncc1` [(E)-4-(4-((2-isonicotinoylhydrazono)methyl)phenoxy)-3-(phenylsulfonyl)-1,2,5-oxadiazole 2-oxide], the IC50 in data set [1] was 43 µM. Further, in data set [2], the MIC90 is 1 µM and 1.0 µM.

In the case of `NC(=O)c1c(COc2ccccc2/C=N/NC(=O)c2ccncc2)no[n+]1[O-]` [Compound 4a, (E)-3-Carbamoyl-4-((2-((2-isonicotinoylhydrazono)methyl)phenoxy)methyl)-1,2,5-oxadiazole 2-Oxide], the MIC90 in data set [3] was determined as 2.95 µg/mL (≈ 7.72 µM); in data set [4], 0.16 µg/mL (≈ 0.418 µM). The half-maximal inhibitory concentration (IC50) in data set [5] was found to be 327 µg/mL (≈ 854 µM).

On to `NC(=O)c1c(COc2cccc(/C=N/NC(=O)c3ccncc3)c2)no[n+]1[O-]` [Compound 4b, (E)-3-Carbamoyl-4-((3-((2-isonicotinoylhydrazono)methyl)phenoxy)methyl)-1,2,5-oxadiazole 2-Oxide], for which the figures for the MIC90 in data set [3] and in data set [4] were 1.6 µg/mL (≈ 4.18 µM) and 0.15 µg/mL (≈ 0.392 µM), respectively. Moreover, the half-inhibitory concentration (IC50) in data set [5] is 490 µg/mL (≈ 1280 µM).

As to `NC(=O)c1c(COc2ccc(/C=N/NC(=O)c3ccncc3)cc2)no[n+]1[O-]` [Compound 4c, (E)-3-Carbamoyl-4-((4-((2-isonicotinoylhydrazono)methyl)phenoxy)methyl)-1,2,5-oxadiazole 2-Oxide], the results for the MIC90 in data set [3] and in data set [4] were 0.78 µg/mL (≈ 2.04 µM) and 0.16 µg/mL (≈ 0.418 µM), respectively. This compound also had an IC50 in data set [5] of 443 µg/mL (≈ 1160 µM).

For `O=C(N/N=C/c1ccc2no[n+]([O-])c2c1)c1ccccc1` [Compound 9, (E)-6-((2-Benzoylhydrazono)methyl)benzo[c][1,2,5]oxadiazole 1-Oxide], the MIC90 in data set [4] is 2.4 µg/mL (≈ 8.5 µM). This compound also registered an IC50 in data set [5] of 36.8 µg/mL (≈ 130 µM).

As to `CC(C)(C)c1ccc(C(=O)N/N=C/c2ccc3no[n+]([O-])c3c2)cc1` [Compound 10, (E)-6-((2-(4-(tert-Butyl)benzoyl)hydrazono)methyl)benzo[c][1,2,5]oxadiazole 1-Oxide], in data set [4], the MIC90 turned out to be 1.3 µg/mL (≈ 3.84 µM). This compound also came in with a 50% inhibitory concentration (IC50) in data set [5] of 8.5 µg/mL (≈ 25.1 µM).

As for `O=C(N/N=C/c1ccc2no[n+]([O-])c2c1)c1ccc([N+](=O)[O-])cc1` [Compound 11, (E)-6-((2-(4-Nitrobenzoyl)hydrazono)methyl)benzo[c][1,2,5]oxadiazole 1-Oxide], in data set [4], the MIC is more than 62 µM. The MIC90 was 1.73 µg/mL (≈ 5.29 µM) in data set [4], more than 200 µM in data set [6], more than 200 µM in data set [7] and more than 200 µM in data set [8].

`O=C(N/N=C/c1ccc2no[n+]([O-])c2c1)c1ccccc1O` [Compound 12, (E)-6-((2-(2-Hydroxybenzoyl)hydrazono)methyl)benzo[c][1,2,5]oxadiazole 1-Oxide] displayed an MIC in data set [4] of 16.4 µg/mL.

As to `O=C(N/N=C/c1ccc2no[n+]([O-])c2c1)c1cccc(O)c1` [Compound 13, (E)-6-((2-(3-Hydroxybenzoyl)hydrazono)methyl)benzo[c][1,2,5]oxadiazole 1-Oxide], in data set [4], the MIC90 was more than 25 µg/mL.

Regarding `O=C(N/N=C/c1ccc2no[n+]([O-])c2c1)c1ccc(O)cc1` [Compound 14, (E)-6-((2-(4-Hydroxybenzoyl)hydrazono)methyl)benzo[c][1,2,5]oxadiazole 1-Oxide], the MIC90 in data set [4] was more than 25 µg/mL; in data set [6], more than 200 µM; in data set [7] it was more than 200 µM; in data set [8], more than 200 µM.

Turning to `Nc1ccccc1C(=O)N/N=C/c1ccc2no[n+]([O-])c2c1` [Compound 15, (E)-6-((2-(2-Aminobenzoyl)hydrazono)methyl)benzo[c][1,2,5]oxadiazole 1-Oxide], the MIC90 in data set [4] is 3.7 µg/mL (≈ 12.4 µM). The compound further registered an IC50 in data set [5] of 36.4 µg/mL (≈ 122 µM).

Regarding `Nc1cccc(C(=O)N/N=C/c2ccc3no[n+]([O-])c3c2)c1` [Compound 16, (E)-6-((2-(3-Aminobenzoyl)hydrazono)methyl)benzo[c][1,2,5]oxadiazole 1-Oxide], the MIC90 in data set [4] was 5.3 µg/mL (≈ 17.8 µM). In data set [5], this compound came in with an IC50 of 24.4 µg/mL (≈ 82.1 µM).

Consider `Nc1ccc(C(=O)N/N=C/c2ccc3no[n+]([O-])c3c2)cc1` [Compound 17, (E)-6-((2-(4-Aminobenzoyl)hydrazono)methyl)benzo[c][1,2,5]oxadiazole 1-Oxide], for which the MIC90 in data set [4] was 3.16 µg/mL (≈ 10.6 µM); in data set [6] it was more than 200 µM; in data set [7], more than 200 µM; in data set [8], more than 200 µM. In addition, in data set [5], the IC50 was 250 µg/mL (≈ 841 µM).

Take `N#Cc1c(-c2ccccc2)[n+]([O-])c2ccc(C3OCCO3)cc2[n+]1[O-]` [Compound 19]: the MIC90 in data set [4] came out at 10.3 µg/mL (≈ 30.7 µM). In addition, the IC50 in data set [5] was 10.7 µg/mL (≈ 31.9 µM).

As for `Cc1ccc(-c2c(C#N)[n+]([O-])c3cc(C4OCCO4)ccc3[n+]2[O-])cc1` [Compound 20, 3-Cyano-6-(1,3-dioxolan-2-yl)-2-(p-tolyl)quinoxaline 1,4-Dioxide], the MIC90 in data set [4] was found to be 5.7 µg/mL (≈ 16.3 µM). Moreover, the IC50 in data set [5] was determined as 6.2 µg/mL (≈ 17.7 µM).

For the compound `N#Cc1c(-c2ccc(Cl)cc2)[n+]([O-])c2ccc(C3OCCO3)cc2[n+]1[O-]` [Compound 21, 2-(4-Chlorophenyl)-3-cyano-6-(1,3-dioxolan-2-yl)quinoxaline 1,4-Dioxide], the MIC90 in data set [4] is 6.4 µg/mL (≈ 17.3 µM). In data set [5], this compound yielded an IC50 of 5 µg/mL (≈ 13.5 µM).

As for `COc1ccc(-c2c(C#N)[n+]([O-])c3cc(C4OCCO4)ccc3[n+]2[O-])cc1` [Compound 22, 3-Cyano-6-(1,3-dioxolan-2-yl)-2-(4-methoxyphenyl)quinoxaline 1,4-Dioxide], in data set [4], the MIC90 was 4.4 µg/mL (≈ 12 µM). For the same compound, the 50% inhibitory concentration (IC50) in data set [5] turned out to be 5.5 µg/mL (≈ 15.1 µM).

Take `N#Cc1c(-c2ccc(F)cc2)[n+]([O-])c2ccc(C3OCCO3)cc2[n+]1[O-]` [Compound 23, 3-Cyano-6-(1,3-dioxolan-2-yl)-2-(4-fluorophenyl)quinoxaline 1,4-Dioxide]: the MIC90 in data set [4] amounted to 8.6 µg/mL (≈ 24.3 µM). In data set [5], this compound registered an IC50 of 7.7 µg/mL (≈ 21.8 µM).

For the compound `N#Cc1c(-c2ccc(OC(F)(F)F)cc2)[n+]([O-])c2ccc(C3OCCO3)cc2[n+]1[O-]` [Compound 24, 3-Cyano-6-(1,3-dioxolan-2-yl)-2-(4-(trifluoromethoxy)phenyl)quinoxaline 1,4-Dioxide], in data set [4], the MIC90 turned out to be 6.5 µg/mL (≈ 15.5 µM). Moreover, the IC50 in data set [5] turned out to be 28 µg/mL (≈ 66.8 µM).

On to `N#Cc1c(-c2ccco2)[n+]([O-])c2ccc(C3OCCO3)cc2[n+]1[O-]` [Compound 25, 3-Cyano-6-(1,3-dioxolan-2-yl)-2-(furan-2-yl)quinoxaline 1,4-Dioxide], for which, in data set [4], the MIC90 came to 1.7 µg/mL (≈ 5.23 µM). This compound also displayed a concentration for half-maximal inhibition (IC50) in data set [5] of 11.6 µg/mL (≈ 35.7 µM).

For `N#Cc1c(-c2cccs2)[n+]([O-])c2ccc(C3OCCO3)cc2[n+]1[O-]` [Compound 26, 3-Cyano-6-(1,3-dioxolan-2-yl)-2-(thiophen-2-yl)quinoxaline 1,4-Dioxide], the MIC90 in data set [4] stood at 4.1 µg/mL (≈ 12 µM). For the same compound, half-maximal inhibition in data set [5] (IC50) was put at 5.9 µg/mL (≈ 17.3 µM).

With `N#Cc1c(-c2ccccc2)[n+]([O-])c2ccc(/C=N/NC(=O)c3ccncc3)cc2[n+]1[O-]` [Compound 28], the MIC90 in data set [4] was found to be 16.3 µg/mL (≈ 39.7 µM). This compound also yielded an IC50 in data set [5] of 8.6 µg/mL (≈ 21 µM).

As to `NNC(=O)c1ccncc1` [isoniazid, reference compound], in data set [4], the MIC90 was found to be 0.014 µg/mL (≈ 0.102 µM).

As usually defined, the IC50 is the point on the concentration scale where inhibition reaches its midpoint. As a reminder, the MIC is the smallest concentration in the dilution series that meets the test's criterion for growth inhibition.
